Read-outs that look alike come from different tables or passages of the source.
How the values were obtained:
[1] = pharmacokinetics in rats; format: in vivo; conditions: rat; for plasma Cmax (mean ± S.E.M.) / Tmax (mean ± S.E.M.): n=4
[2] = biological target: T1, adenosine A3 receptor (Homo sapiens, UniProt P0DMS8); assay: in vitro binding assay
T1 sequence (P0DMS8 1-318): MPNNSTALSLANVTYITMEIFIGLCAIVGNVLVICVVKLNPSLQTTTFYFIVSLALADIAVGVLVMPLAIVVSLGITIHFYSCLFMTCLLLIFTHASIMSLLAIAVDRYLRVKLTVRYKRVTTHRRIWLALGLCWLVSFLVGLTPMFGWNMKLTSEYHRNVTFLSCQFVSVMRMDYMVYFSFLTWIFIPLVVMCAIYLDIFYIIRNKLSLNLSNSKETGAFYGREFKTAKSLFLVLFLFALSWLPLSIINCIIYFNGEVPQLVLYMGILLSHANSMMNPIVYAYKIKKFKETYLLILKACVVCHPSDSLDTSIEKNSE

[3] = tested on: PDE6; assay: in vitro enzyme assay; format: biochemical; conditions: 100 μM (36 μg/mL) DSM421
[4] = tested on: Male Sprague Dawley rats; assay: stress-related hormones after plethysmography testing; format: in vivo, rat; conditions: approximately 5 hours post-dosing, 200, 500, 750 mg/kg p.o., whole-body and head-out testing
[5] = tested on: Male Sprague Dawley rats; conditions: rat, in vivo, po
[6] = tested on: rats; assay: original GLP respiratory study using head-out plethysmography; format: in vivo, rat; conditions: original head-out study, 200, 500, 750 mg/kg p.o.
[7] = estimated plasma maximum concentrations in dogs; format: in vivo, dog
[8] = tested on: rats; assay: Irwin test; format: in vivo, rat; conditions: oral doses of 200, 500 and 750 mg/kg
[9] = biological target: PDE5 (Homo sapiens, UniProt O76074); assay: in vitro enzyme assay; format: biochemical; conditions: 100 μM (36 μg/mL) DSM421
[10] = tested on: Male Sprague Dawley rats; assay: respiratory function, whole-body plethysmography; format: in vivo, rat; conditions: for increase in tidal volume: throughout 5 hours post-dosing, not significant
[11] = tested on: dogs; assay: cardiovascular and respiratory assessment in telemetry-instrumented dogs; format: in vivo, dog
[12] = biological target: transient receptor potential cation channel subfamily V member 1 (TRPV1) (Homo sapiens, UniProt Q8NER1); assay: in vitro functional assays for agonist and antagonist effects; format: biochemical
[13] = whole-body, 200 and 500 mg/kg p.o., peak at 5 hours post-dosing

Sequence of transient receptor potential cation channel subfamily V member 1 (TRPV1) (Q8NER1 whole entry, species assumed): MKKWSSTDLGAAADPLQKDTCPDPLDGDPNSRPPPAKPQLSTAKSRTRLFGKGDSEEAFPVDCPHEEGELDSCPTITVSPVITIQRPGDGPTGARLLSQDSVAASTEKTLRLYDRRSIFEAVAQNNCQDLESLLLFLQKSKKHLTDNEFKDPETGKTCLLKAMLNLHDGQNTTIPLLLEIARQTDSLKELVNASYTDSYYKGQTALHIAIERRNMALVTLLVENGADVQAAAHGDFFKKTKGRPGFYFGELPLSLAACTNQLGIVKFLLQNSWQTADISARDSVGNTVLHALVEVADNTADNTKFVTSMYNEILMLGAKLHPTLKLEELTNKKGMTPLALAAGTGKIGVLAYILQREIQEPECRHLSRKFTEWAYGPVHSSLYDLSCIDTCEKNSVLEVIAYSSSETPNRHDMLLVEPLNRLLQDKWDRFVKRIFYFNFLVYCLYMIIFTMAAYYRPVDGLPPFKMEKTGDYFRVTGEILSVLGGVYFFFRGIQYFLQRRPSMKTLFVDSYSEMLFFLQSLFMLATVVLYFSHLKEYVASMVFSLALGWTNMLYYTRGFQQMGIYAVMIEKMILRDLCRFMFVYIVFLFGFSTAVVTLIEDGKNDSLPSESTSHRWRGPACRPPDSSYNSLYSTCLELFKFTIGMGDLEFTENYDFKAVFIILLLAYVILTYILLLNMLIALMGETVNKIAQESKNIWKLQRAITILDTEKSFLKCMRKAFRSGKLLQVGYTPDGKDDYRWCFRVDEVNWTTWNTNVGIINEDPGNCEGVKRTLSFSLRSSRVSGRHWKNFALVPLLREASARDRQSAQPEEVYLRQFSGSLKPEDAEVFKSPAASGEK

Cc1cc(Nc2ccc(C(F)(F)F)nc2)n2nc(C(C)(F)F)nc2n1 [DSM421, 2-(1,1-difluoroethyl)-5-methyl-N-[6-trifluromethyl-3-pyridyl]-[1,2,4]triazolo[1,5-a]pyrimidin-7-amine]
plasma Cmax (mean ± S.E.M.) ([1]; 200 mg/kg p.o.): 49 µg/mL | Tmax (mean ± S.E.M.) ([1]; 500 mg/kg p.o.): 18 ± 3.5 h | plasma Cmax (mean ± S.E.M.) ([1]; 500 mg/kg p.o.): 73 µg/mL | plasma level by 6 days after dosing relative to LLOQ (0.005 μg/mL) ([1]; 750 mg/kg p.o. (high dose)): only slightly greater than that | Tmax (mean ± S.E.M.) ([1]; 750 mg/kg p.o.): 27 ± 7.5 h | plasma Cmax (mean ± S.E.M.) ([1]; 750 mg/kg p.o.): 97 µg/mL | inhibition of control specific binding ([2]; 10 μM DSM421): 40% | inhibition of control specific binding ([2]; 100 μM (36 μg/mL) DSM421): 91% | inhibition [3]: 72% | ACTH plasma level, effect of dose [4]: no overall effect for dose | aldosterone serum level, effect of dose [4]: no overall effect for dose | corticosterone serum level, effect of dose [4]: overall effect for dose | changes in respiratory rate ([5]; 200 mg/kg): no changes in respiratory rate | clinical signs ([5]; 200 mg/kg): no DSM421-related clinical signs | mean minute volume increase above the control group ([5]; 200 mg/kg): approximately 17% | animals with hypoactivity, salivation, dyspnea and/or increased body temperature ([5]; 500 mg/kg): 2 of the eight animals tested | increase in respiratory rate above controls ([5]; 500 mg/kg): 5–17% | mean minute volume increase above the control group ([5]; 500 mg/kg): ~48% | increase in respiratory rate above controls (peak) ([5]; 750 mg/kg): 41–47% | increase in tidal volume above controls (peak) ([5]; 750 mg/kg): 46–57% | mean minute volume increase above controls (peak) ([5]; 750 mg/kg): 141% | time after administration of death or euthanasia in extremis [6]: 3 to 5 h | estimated maximum concentration (Cmax) in plasma ([7]; 30 mg/kg p.o.): 29 µg/mL | estimated maximum concentration (Cmax) in plasma ([7]; 100 mg/kg p.o.): 69 µg/mL | Irwin test effects [8]: no effects were observed | inhibition [9]: 59% | clinical signs ([10]; whole-body chambers, 200, 500, 750 mg/kg p.o., 5-hour post-dosing period): no DSM421-related clinical signs | increase in tidal volume ([10]; whole-body, 200 mg/kg p.o.): approximately 5% | increase in tidal volume ([10]; whole-body, 500 mg/kg p.o.): ~6% | mean minute volume increase [10, 13]: approximately 28% | mean respiratory rate increase compared to vehicle control [10, 13]: 22–23% | clinical observation ([11]; 100 mg/kg p.o.): emesis | increase in minute volume ([11]; 100 mg/kg p.o.): 4- to 5 fold | increase in respiratory rate ([11]; 100 mg/kg p.o.): 4- to 5 fold | cardiovascular function (heart rate, blood pressure, and ECG) ([11]; 30 and 100 mg/kg p.o.): no effects | tidal volume ([11]; 30 and 100 mg/kg p.o.): no effects | no-observed-effect level (NOEL) ([11]; p.o.): 30 mg/kg | agonist effect (percent of control agonist response) ([12]; 100 μM DSM421, agonist mode): 26% | antagonist effect ([12]; 100 μM DSM421, antagonist mode): no effect
